Test results: patent publication US20230250077A1, “SULFONYLBENZAMIDE DERIVATIVE AND CONJUGATE THEREOF, PREPARATION METHOD THEREFOR AND USE THEREOF” (Jiangsu Hengrui Pharmaceuticals Co., Ltd., priority 2020, published 2023)

Legend:
[1] = target: T1, BCL-xL (Homo sapiens, UniProt Q07817); experiment: Binding activity for BCL-xL (HTRF, biotin-labeled BIM); conditions: His-tagged BCL-xL
T1 construct: purchased R&D 894-BX-050
Experimental: In vitro BCL-xL-binding activity was tested by the following method.
Reagents used in this experiment: His-tagged BCL-xL protein (R&D, Cat #894-BX-050); biotin-labeled BIM protein (R&D, Cat #3526/1); binding buffer (cisbio, Cat #62DLBDDF); assay buffer (cisbio, Cat #62DB1FDG); MAb anti-6His-Eu cryptate (cisbio, Cat #61HI2KLA); and affinity streptomycin linked XL665 (cisbio, Cat #611SAXLA).
The in vitro binding assay described below can determine the binding activity of test compounds for BCL-xL.
The test compounds were dissolved in dimethyl sulfoxide and diluted to gradient concentrations as required for the experiment, and the compounds at various concentrations formulated in dimethyl sulfoxide were subjected to a 100-fold dilution with a binding buffer. BCL-xL was diluted to the corresponding concentration with a binding buffer, and added to a white 384-well plate at 4 μL/well. Then the diluted test compound was added to the white 384-well plate at 2 μL/well. The plate was incubated at 25° C. for 1 h after the mixture was uniformly mixed. Biotin-labeled BIM protein was diluted to the corresponding concentration with a binding buffer, and added to a white 384-well plate at 4 μL/well. The plate was incubated at 25° C. for 2 h after the mixture was uniformly mixed. The MAb anti-6His-Eu cryptate and the affinity streptomycin linked XL665 were each diluted to the corresponding concentration with an assay buffer, and added to a white 384-well plate at 5 μL/well. The plate was incubated at 25° C. for 2-4 h after the mixture was uniformly mixed. The signal values were read with the HTRF program in a microplate reader (BMG Labtech, model: PHERAstar FS).

[2] = target: T2, BCL-2 (Homo sapiens, UniProt P10415); experiment: Binding activity for BCL-2 (HTRF, biotin-labeled BIM); conditions: His-tagged BCL-2, biotin-labeled BIM
T2 construct: purchased R&D systems 827-BC-050
T2 sequence (P10415 whole entry): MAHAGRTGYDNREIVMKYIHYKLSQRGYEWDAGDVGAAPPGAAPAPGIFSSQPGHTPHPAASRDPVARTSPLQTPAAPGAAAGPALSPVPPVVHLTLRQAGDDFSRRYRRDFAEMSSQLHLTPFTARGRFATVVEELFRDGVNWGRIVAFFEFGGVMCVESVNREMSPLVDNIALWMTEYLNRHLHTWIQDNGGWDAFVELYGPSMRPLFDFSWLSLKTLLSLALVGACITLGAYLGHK
Experimental: In vitro BCL-2-binding activity was tested by the following method.
Reagents used in this experiment: His-tagged BCL-2 protein (R&D systems, Cat #827-BC-050); biotin-labeled BIM protein (R&D, Cat #3526/1); binding buffer (cisbio, Cat #62DLBDDF); assay buffer (cisbio, Cat #62DB1FDG); MAb anti-6His-Eu cryptate (cisbio, Cat #61HI2KLA); and affinity streptomycin linked XL665 (cisbio, Cat #611SAXLA).
The in vitro binding assay described below can determine the binding activity of test compounds for BCL-2.
The test compounds were dissolved in dimethyl sulfoxide and diluted to gradient concentrations as required for the experiment, and the compounds at various concentrations formulated in dimethyl sulfoxide were subjected to a 100-fold dilution with a binding buffer. BCL-2 was diluted to the corresponding concentration with a binding buffer solution, and added to a white 384-well plate at 4 μL/well. Then the diluted test compound was added into the white 384-well plate at 2 μL/well. The plate was incubated at 25° C. for 1 h after the mixture was uniformly mixed. Biotin-labeled BIM protein was diluted to the corresponding concentration with a binding buffer, and added to a white 384-well plate at 4 μL/well. The plate was incubated at 25° C. for 2 h after the mixture was uniformly mixed. The MAb anti-6His-Eu cryptate and the affinity streptomycin linked XL665 were each diluted to the corresponding concentration with an assay buffer, and added to a white 384-well plate at 5 μL/well. The plate was incubated at 25° C. for 2-4 h after the mixture was uniformly mixed. The signal values were read with the HTRF program in a microplate reader (BMG Labtech, model: PHERAstar FS).

[3] = test system: RS4;11 cells; experiment: Inhibition of proliferation of RS4;11 cells (CellTiter-Glo); assay type: cell-based; conditions: Homo sapiens, 72 h, 3 days, read-out: Inhibitory activity IC50 (nM) for the proliferation of RS4;11 cells
Experimental: (§1) In vitro inhibitory activity for the proliferation of RS4;11 cells and NCI-H146 cells was tested by the following method.
(§2) Reagents used in this experiment: RPMI-1640 medium (HyCLone, Cat #SH30243018); fetal bovine serum (Gibco, Cat #10099-141); pancreatin (Gibco, Cat #25200-072); Cell Titer-Glo (Promega, Cat #G7571).
(§3) Materials used: RS4;11 cells (Nanjing Kebai Biotechnology Co., Ltd, Cat #CBP60641); and NCI-H146 cells (ATCC, Cat #HTB-173).
(§4) The in vitro cell proliferation assay described below can determine the inhibitory activity of the test compounds for the proliferation of RS4;11 cells and NCI-H146 cells.
(§5) RS4;11 cells (or NCI-H146 cells) were cultured in an RPMI-1640 culture medium containing 10% FBS, and were passaged for 2-3 times a week in a passage ratio of 1:3 or 1:5. During passage, the cells were transferred to a centrifuge tube, and centrifuged at 1200 rpm for 3 min. The supernatant was discarded, and fresh culture medium was added to resuspend the cells. 90 μL of cell suspension was added to a 96-well cell culture plate, wherein RS4;11 cells and NCI-H146 cells were added at a density of 2.22×10^5 cells/mL. Only 100 μL of complete medium (RPMI-1640 medium containing 10% FBS) was added to the periphery of the 96-well plate. The plate was incubated in an incubator for 24 h (37° C., 5% CO2).
(§6) The test sample was diluted to a proper concentration gradient with dimethyl sulfoxide as required for the experiment. 5 μL of the solution of the test compound prepared in a gradient concentration was added to 95 μL of fresh culture medium and mixed uniformly, and then 10 μL of the culture medium containing the above compound was added to a cell culture plate. The cell culture plate was incubated in an incubator for 3 days (37° C., 5% CO2). 50 μL of CellTiter-Glo reagent was added into each well of the 96-well cell culture plate. The plate was let stand for 5-10 min away from the light at room temperature. The chemiluminescence signals were read by a microplate reader (BMG Labtech, model: PHERAstar FS) and the data were processed by GraphPad software.

[4] = test system: NCI-H146 cells; experiment: Inhibition of proliferation of NCI-H146 cells (CellTiter-Glo); assay type: cell-based; conditions: Homo sapiens, 72 h, 3 days, read-out: Inhibitory activity IC50 (nM) for the proliferation of NCI-H146 cells
Experimental: as §1, §2, §3, §4, §5, §6

T1 sequence (Q07817 whole entry): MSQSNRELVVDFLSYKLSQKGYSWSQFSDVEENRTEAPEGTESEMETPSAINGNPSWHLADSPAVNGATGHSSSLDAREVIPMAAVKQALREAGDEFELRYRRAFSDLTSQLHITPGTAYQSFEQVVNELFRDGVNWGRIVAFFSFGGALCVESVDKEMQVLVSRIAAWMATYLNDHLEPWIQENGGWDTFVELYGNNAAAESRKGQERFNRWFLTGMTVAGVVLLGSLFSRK

SMILES	Ki [1] [nM]	Ki [2] [nM]	IC50 [3] [nM]	IC50 [4] [nM]
O=C(NS(=O)(=O)c1ccc(N[C@@H](CSc2ccccc2)C[C@H]2CCCN2CCO)c(S(=O)(=O)C(F)(F)F)c1)c1ccc(N2CCC([C@@H](O)c3ccccc3-c3ccc(Cl)cc3)CC2)cc1 [Example 2-2, 4-(4-((R)-(4′-chloro-[1,1′-biphenyl]-2-yl)(hydroxy)methyl)piperidin-1-yl)-N-((4-(((R)-1-((R)-1-(2-hydroxyethyl)pyrrolidin-2-yl)-3-(phenylthio)propan-2-yl)amino)-3-((trifluoromethyl)sulfonyl)phenyl)sulfonyl)benzamide]	0.24	0.07	7	33
CO[C@@H](c1ccccc1-c1ccc(Cl)cc1)C1CCN(c2ccc(C(=O)NS(=O)(=O)c3ccc(N[C@@H](CSc4ccccc4)C[C@H]4CCCN4)c(S(=O)(=O)C(F)(F)F)c3)cc2)CC1 [Example 2-3, 4-(4-((R)-(4′-chloro-[1,1′-biphenyl]-2-yl)(methoxy)methyl)piperidin-1-yl)-N-((4-(((R)-1-(phenylthio)-3-((R)-pyrrolidin-2-yl)propan-2-yl)amino)-3-((trifluoromethyl)sulfonyl)phenyl)sulfonyl)benzamide]	0.17	0.1	58	74
CO[C@@H](c1ccccc1-c1ccc(Cl)cc1)C1CCN(c2ccc(C(=O)NS(=O)(=O)c3ccc(N[C@@H](CSc4ccccc4)C[C@H]4CCCN4CCO)c(S(=O)(=O)C(F)(F)F)c3)cc2)CC1 [Example 2-4, 4-(4-((R)-(4′-chloro-[1,1′-biphenyl]-2-yl)(methoxy)methyl)piperidin-1-yl)-N-((4-(((R)-1-((R)-1-(2-hydroxyethyl)pyrrolidin-2-yl)-3-(phenylthio)propan-2-yl)amino)-3-((trifluoromethyl)sulfonyl)phenyl)sulfonyl)benzamide]	0.32	0.13	34	94
O=C(NS(=O)(=O)c1ccc(N[C@@H](CSc2ccccc2)C[C@H]2CCCN2CCCO)c(S(=O)(=O)C(F)(F)F)c1)c1ccc(N2CCC([C@@H](O)c3ccccc3-c3ccc(Cl)cc3)CC2)cc1 [Example 2-5, 4-(4-((R)-(4′-chloro-[1,1′-biphenyl]-2-yl)(hydroxy)methyl)piperidin-1-yl)-N-((4-(((R)-1-((R)-1-(3-hydroxypropyl)pyrrolidin-2-yl)-3-(phenylthio)propan-2-yl)amino)-3-((trifluoromethyl)sulfonyl)phenyl)sulfonyl)benzamide]	0.45	0.13	9	55
CC(Sc1ccccc1)[C@@H](CCN(C)CCO)Nc1ccc(S(=O)(=O)NC(=O)c2ccc(N3CCC([C@@H](O)c4ccccc4-c4ccc(C(F)(F)F)cc4)CC3)cc2)cc1S(=O)(=O)C(F)(F)F (stereo partly drawn) [Example 2-7, 4-(4-((R)-hydroxy(4′-(trifluoromethyl)-[1,1′-biphenyl]-2-yl)methyl)piperidin-1-yl)-N-((4-(((3R)-1-((2-hydroxyethyl)(methyl)amino)-4-(phenylthio)pentan-3-yl)amino)-3-((trifluoromethyl)sulfonyl)phenyl)sulfonyl)benzamide]	–	0.34	–	–
O=C(NS(=O)(=O)c1ccc(N[C@@H](CSc2ccccc2)C[C@@H]2CCCN2)c(S(=O)(=O)C(F)(F)F)c1)c1ccc(N2CCC([C@@H](O)c3ccccc3-c3ccc(Cl)cc3)CC2)cc1 [Example 2-8, 4-(4-((R)-(4′-chloro-[1,1′-biphenyl]-2-yl)(hydroxy)methyl)piperidin-1-yl)-N-((4-(((R)-1-(phenylthio)-3-((S)-pyrrolidin-2-yl)propan-2-yl)amino)-3-((trifluoromethyl)sulfonyl)phenyl)sulfonyl)benzamide]	0.3	0.11	18	46

Further compounds by falling Ki [2], results first:

Ki [1] [nM]	Ki [2] [nM]	IC50 [3] [nM]	IC50 [4] [nM]	SMILES
0.09	0.07	23	36	O=C(NS(=O)(=O)c1ccc(N[C@@H](CSc2ccccc2)C[C@H]2CCCN2)c(S(=O)(=O)C(F)(F)F)c1)c1ccc(N2CCC([C@@H](O)c3ccccc3-c3ccc(Cl)cc3)CC2)cc1 [Example 2-1, 4-(4-((R)-(4′-chloro-[1,1′-biphenyl]-2-yl)(hydroxy)methyl)piperidin-1-yl)-N-((4-(((R)-1-(phenylthio)-3-((R)-pyrrolidin-2-yl)propan-2-yl)amino)-3-((trifluoromethyl)sulfonyl)phenyl)sulfonyl)benzamide]
0.1	0.04	5	16	O=C(NS(=O)(=O)c1ccc(N[C@@H](CSc2ccccc2)C[C@@H]2CCCN2CCCO)c(S(=O)(=O)C(F)(F)F)c1)c1ccc(N2CCC([C@@H](O)c3ccccc3-c3ccc(Cl)cc3)CC2)cc1 [Example 2-11, 4-(4-((R)-(4′-chloro-[1,1′-biphenyl]-2-yl)(hydroxy)methyl)piperidin-1-yl)-N-((4-(((R)-1-((S)-1-(3-hydroxypropyl)pyrrolidin-2-yl)-3-(phenylthio)propan-2-yl)amino)-3-((trifluoromethyl)sulfonyl)phenyl)sulfonyl)benzamide]
0.15	0.04	–	–	O=C(NS(=O)(=O)c1ccc(N[C@@H](CSc2ccccc2)C[C@@H]2CCCN2)c(S(=O)(=O)C(F)(F)F)c1)c1ccc(N2CCC([C@@H](O)c3ccccc3-c3ccc(C(F)(F)F)cc3)CC2)cc1 [Example 2-12, 4-(4-((R)-hydroxy(4′-(trifluoromethyl)-[1,1′-biphenyl]-2-yl)methyl)piperidin-1-yl)-N-((4-(((R)-1-(phenylthio)-3-((S)-pyrrolidin-2-yl)propan-2-yl)amino)-3-((trifluoromethyl)sulfonyl)phenyl)sulfonyl)benzamide]
